{"source": "patent US20210283199A1", "about": "(priority 2020, published 2021)", "format_in_all_cases": "cell-based, Clostridium perfringens", "key": {"[1]": {"system": "C. perfringens strain 4.6"}, "[2]": {"system": "C. perfringens strain 4.6", "remark": "listed apart in the source"}, "[3]": {"system": "agrD gene"}, "[4]": {"system": "netB gene"}, "[5]": {"system": "perfringolysin O (pfoA) toxin secreted by C. perfringens CP4.6"}, "[6]": {"system": "C. perfringens CP4.6"}}, "note": "“Also recorded” adds a separate entry of the source."}
{"substance": "fengycin", "values": [{"measurement": "biofilm formation", "setting": "[1]", "value": "inhibited the ability of the organism to form biofilm"}, {"measurement": "cell growth (cell count, cfu/ml)", "setting": "[2]", "value": "did not interfere and had minimal effect on cell growth"}, {"measurement": "expression of agrD gene", "setting": "[3]", "value": "downregulated"}, {"measurement": "lowest concentration that downregulates expression of agrD", "setting": "[3]", "value": 0.1, "unit": "ppm"}, {"measurement": "expression of netB gene", "setting": "[4]", "value": "downregulated"}, {"measurement": "lowest concentration that downregulates expression of netB", "setting": "[4]", "value": 0.1, "unit": "ppm"}, {"measurement": "hemolysis activity (zone of clearing)", "setting": "[5]", "value": "reduced significantly; also recorded: completely inhibited"}, {"measurement": "C. perfringens cell growth (planktonic cell count)", "setting": "[6]", "value": "did not interfere and had minimal effect on C. perfringens cell growth"}]}
